Data set [1] deals with Mycobacterium tuberculosis. Briefly: Antitubercular activity against Mycobacterium tuberculosis H37Rv incubated for 7 days by microplate alamar blue assay. Conditions: 168 h. It is filed as functional.
For data set [2], the system named is Mycobacterium tuberculosis. Briefly: Potency index, ratio of ethambutol MIC to test compound MIC for antitubercular activity against Mycobacterium tuberculosis H37Rv incubated for […] by microplate alamar blue assay. Format: functional.
A short description of data set [3]: Cytotoxicity against mouse RAW264.7 cells assessed as reduction in cell viability at 25 ug/ml incubated for 48 hrs by MTT assay relative to control. It is filed as cell-based. The following applies: read-out: INH. Background: Tetrazolium assays rely on reduction of a dye to a coloured formazan, in cell work by metabolically active cells.

SMILES strings stand for the structures. Values after ≈ are worked out from the molar mass of the structure shown.

A word on the MIC: it is the smallest concentration in the dilution series that meets the test's criterion for growth inhibition. A higher MIC goes with a less susceptible organism.

In data set [1], `Cc1nn(-c2ccccc2)c(-n2cncn2)c1C1C2CCCN2C2(C(=O)Nc3ccc(Cl)cc32)C1C(=O)c1ccccc1` (stereo unspecified) displayed an MIC of 0.78 µg/mL (≈ 1.32 µM). In addition, the Ratio in data set [2] is greater than 1. Moreover, in data set [3], the cytotoxicity at 48 h, 25 ug/ml is 19.8%.

On to `COc1ccc(C(=O)C2C(c3c(C)nn(-c4ccccc4)c3-n3cncn3)C3CCCN3C23C(=O)Nc2ccccc23)cc1` (stereo unspecified), for which, in data set [1], the MIC worked out at 12.5 µg/mL (≈ 21.3 µM). In data set [1], `Cc1nn(-c2ccccc2)c(-n2cncn2)c1C1C2CCCN2C2(C(=O)Nc3ccccc32)C1C(=O)c1ccccc1` (stereo unspecified) gave an MIC greater than 25 µg/mL. With `Cc1nn(-c2ccccc2)c(-n2cncn2)c1C1C2CCCN2C2(C(=O)Nc3ccccc32)C1C(=O)c1ccc(Br)cc1` (stereo unspecified), in data set [1], 1.56 µg/mL (≈ 2.46 µM) was the least that counted as inhibitory (MIC). For the same molecule, the cytotoxicity at 48 h, 25 ug/ml in data set [3] was found to be 27.1%. For `Cc1nn(-c2ccccc2)c(-n2cncn2)c1C1C2CCCN2C2(C(=O)Nc3ccc(Br)cc32)C1C(=O)c1ccc(Cl)cc1` (stereo unspecified) the same measures were 1.56 µg/mL (≈ 2.33 µM) and 22.4%. On to `Cc1nn(-c2ccccc2)c(-n2cncn2)c1C1C2CCCN2C2(C(=O)Nc3ccc(Cl)cc32)C1C(=O)c1ccc([N+](=O)[O-])cc1` (stereo unspecified), for which it took 1.56 µg/mL (≈ 2.46 µM) to inhibit growth in data set [1] (MIC). Also, the cytotoxicity at 48 h, 25 ug/ml in data set [3] was 24.9%. The molecule `Cc1nn(-c2ccccc2)c(-n2cncn2)c1C1C2CCCN2C2(C(=O)Nc3ccc(Cl)cc32)C1C(=O)c1cccc([N+](=O)[O-])c1` (stereo unspecified) displayed an MIC in data set [1] of 6.25 µg/mL (≈ 9.84 µM). Besides, in data set [3], the cytotoxicity at 48 h, 25 ug/ml turned out to be 19%.

Take `Cc1nn(-c2ccccc2)c(-n2cncn2)c1C1C2CCCN2C2(C(=O)Nc3ccc(Br)cc32)C1C(=O)c1ccc([N+](=O)[O-])cc1` (stereo unspecified): the minimum inhibitory concentration (MIC) in data set [1] came to 6.25 µg/mL (≈ 9.2 µM). In addition, the cytotoxicity at 48 h, 25 ug/ml in data set [3] came to 26.4%. For the molecule `Cc1nn(-c2ccccc2)c(-n2cncn2)c1C1C2CCCN2C2(C(=O)Nc3ccccc32)C1C(=O)c1ccc(Cl)cc1` (stereo unspecified), the lowest concentration to inhibit growth in data set [1] (MIC) was 6.25 µg/mL (≈ 10.6 µM). Also, in data set [3], the cytotoxicity at 48 h, 25 ug/ml came to 16.9%. Molecule `Cc1nn(-c2ccccc2)c(-n2cncn2)c1C1C2CCCN2C2(C(=O)Nc3ccccc32)C1C(=O)c1cccc([N+](=O)[O-])c1` (stereo unspecified) showed an MIC in data set [1] greater than 25 µg/mL. In the case of `Cc1nn(-c2ccccc2)c(-n2cncn2)c1C1C2CCCN2C2(C(=O)Nc3ccc(Br)cc32)C1C(=O)c1cccc([N+](=O)[O-])c1` (stereo unspecified), inhibition of growth in data set [1] (MIC) required 6.25 µg/mL (≈ 9.2 µM). Moreover, the cytotoxicity at 48 h, 25 ug/ml in data set [3] was 20.1%. `COc1ccc(C(=O)C2C(c3c(C)nn(-c4ccccc4)c3-n3cncn3)C3CCCN3C23C(=O)Nc2ccc(Br)cc23)cc1` (stereo unspecified) registered a minimum inhibitory concentration (MIC) in data set [1] of 25 µg/mL (≈ 37.6 µM). In data set [1], `Cc1nn(-c2ccccc2)c(-n2cncn2)c1C1C2CCCN2C2(C(=O)Nc3ccc(Cl)cc32)C1C(=O)c1ccc(Cl)cc1` (stereo unspecified) showed a minimum inhibitory concentration (MIC) of 1.56 µg/mL (≈ 2.5 µM). Also, the cytotoxicity at 48 h, 25 ug/ml in data set [3] is 17.9%. Consider `Cc1nn(-c2ccccc2)c(-n2cncn2)c1C1C2CCCN2C2(C(=O)Nc3ccc(Br)cc32)C1C(=O)c1ccccc1` (stereo unspecified), for which the minimum inhibitory concentration (MIC) in data set [1] came to 3.12 µg/mL (≈ 4.92 µM). For the same molecule, the cytotoxicity at 48 h, 25 ug/ml in data set [3] came out at 18.6%.

`Cc1nn(-c2ccccc2)c(-n2cncn2)c1C1C2CCCN2C2(C(=O)Nc3ccc(Br)cc32)C1C(=O)c1ccc(Br)cc1` (stereo unspecified): the minimal inhibitory concentration (MIC) in data set [1] turned out to be 1.56 µg/mL (≈ 2.19 µM). Further, the cytotoxicity at 48 h, 25 ug/ml in data set [3] was 22%.

Regarding `Cc1ccc(C(=O)C2C(c3c(C)nn(-c4ccccc4)c3-n3cncn3)C3CCCN3C23C(=O)Nc2ccccc23)cc1` (stereo unspecified), in data set [1], the MIC is greater than 25 µg/mL. `Cc1nn(-c2ccccc2)c(-n2cncn2)c1C1C2CCCN2C2(C(=O)Nc3ccccc32)C1C(=O)c1ccc([N+](=O)[O-])cc1` (stereo unspecified) had an MIC in data set [1] of 6.25 µg/mL (≈ 10.4 µM). Moreover, in data set [3], the cytotoxicity at 48 h, 25 ug/ml was 29.6%. In data set [1], `COc1ccc(C(=O)C2C(c3c(C)nn(-c4ccccc4)c3-n3cncn3)C3CCCN3C23C(=O)Nc2ccc(Cl)cc23)cc1` (stereo unspecified) returned a minimal inhibitory concentration (MIC) of 3.12 µg/mL (≈ 5.03 µM). For the same molecule, the cytotoxicity at 48 h, 25 ug/ml in data set [3] came to 21.6%. Consider `Cc1ccc(C(=O)C2C(c3c(C)nn(-c4ccccc4)c3-n3cncn3)C3CCCN3C23C(=O)Nc2ccc(Cl)cc23)cc1` (stereo unspecified), for which, in data set [1], inhibition of growth (MIC) required 25 µg/mL (≈ 41.4 µM). On to `Cc1nn(-c2ccccc2)c(-n2cncn2)c1C1C2CCCN2C2(C(=O)Nc3ccc(Cl)cc32)C1C(=O)c1ccc(Br)cc1` (stereo unspecified), for which, in data set [1], the lowest concentration to inhibit growth (MIC) was 1.56 µg/mL (≈ 2.33 µM). For the same molecule, the cytotoxicity at 48 h, 25 ug/ml in data set [3] turned out to be 26.4%. In the case of `CC[C@@H](CO)NCCN[C@@H](CC)CO` [ETHAMBUTOL], inhibition of growth in data set [1] (MIC) required 1.56 µg/mL (≈ 7.64 µM).

The values are drawn from ChEMBL document CHEMBL4387723, “Ultrasonication-ionic liquid synergy for the synthesis of new potent anti-tuberculosis 1,2,4-triazol-1-yl-pyrazole based spirooxindolopyrrolizidines” (Bioorg Med Chem Lett, 2019).
